Patent publication US10774064B2 (Cadent Therapeutics, Inc., priority 2016, dated 2020)

Target: T1, small-conductance Ca2+-activated K+ channels (SK channels, subtype 2) (Homo sapiens, UniProt Q9H2S1)
T1 construct: expressed in transfected cells; host or cells: HEK293
Assay: whole-cell patch-clamp of ionic current through SK2 channels in HEK293 cells (SC100)
Format: cell-based
Settings: whole-cell patch-clamp, HEK293 cells expressing SK2 channels; concentration that increases the basal current by 100%
Outline: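 Whole-cell patch-clamp recording of current in HEK293 cells expressing SK2 channels. SC100 is the compound concentration that increases basal current by 100%.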

SMILES | SC100 (μM)
Cc1ccn(-c2nc(NC3CCC(F)(F)CC3)cc(OC3CC(C)(O)C3)n2)n1 (centres unmarked) [NSSy5902, 3-((6-((4,4-difluorocyclohexyl)amino)-2-(3-methyl-1H-pyrazol-1-yl)pyrimidin-4-yl)oxy)-1-methylcyclobutan-1-ol] | ++ (++ means 200 nM-1000 nM)
COCc1cc(NC2CCC(F)(F)CC2)nc(-c2nc(C)cs2)c1 [NSSy5933, N-(4,4-difluorocyclohexyl)-4-(methoxymethyl)-6-(4-methylthiazol-2-yl)pyridin-2-amine] | ++ (++ means 200 nM-1000 nM)
COC(=O)N1CC(Oc2cc(NC3CCC(F)(F)CC3)cc(-n3ccc(C)n3)c2)C1 [NSSy5934, methyl 3-(3-((4,4-difluorocyclohexyl)amino)-5-(3-methyl-1H-pyrazol-1-yl)phenoxy)azetidine-1-carboxylate] | + (+ means >1 uM)
Cc1noc(-c2cc(N3CCOCC3)cc(NC3CCC(F)(F)CC3)n2)n1 [NSSy5957] | + (+ means >1 uM)
COC(=O)N1CC(Oc2cc(NC3CCC(F)(F)CC3)nc(-c3nc(C)no3)c2)C1 [NSSy5959] | + (+ means >1 uM)
COC(=O)N1CC(Oc2cc(NC3CCC(F)(F)CC3)cc(-c3nc(C)cs3)c2)C1 [NSSy5972, methyl 3-(3-((4,4-difluorocyclohexyl)amino)-5-(4-methylthiazol-2-yl)phenoxy) azetidine-1-carboxylate] | + (+ means >1 uM)
COC(=O)N1CC(Oc2cc(NC3CC=C(C)CC3)nc(-c3nc(C)cs3)c2)C1 (centres unmarked) [NSSy5980, methyl 3-((2-((4-methylcyclohex-3-en-1-yl)amino)-6-(4-methylthiazol-2-yl)pyridin-4-yl)oxy)azetidine-1-carboxylate] | ++ (++ means 200 nM-1000 nM)
Cc1ccn(-c2cc(COc3ccc(F)cn3)cc(NC3CCC(F)(F)CC3)n2)n1 [NSSy5996] | ++ (++ means 200 nM-1000 nM)
Cc1csc(-c2nc(NC3CCC(F)(F)CC3)cc(OC3CCCn4nncc43)n2)n1 (centres unmarked) [NSSy6007] | ++ (++ means 200 nM-1000 nM)
Cc1ccn(-c2cc(CN3CCCC3=O)cc(NC3CCC(F)(F)CC3)n2)n1 [NSSy6019, 1-((2-((4,4-difluorocyclohexyl)amino)-6-(3-methyl-1H-pyrazol-1-yl)pyridin-4-yl)methyl)pyrrolidin-2-one] | ++ (++ means 200 nM-1000 nM)
Cc1cc(CN2CCC(F)(F)CC2)cc(-c2nc(C)cs2)c1 [NSSy6044, 2-(3-((4,4-difluoropiperidin-1-yl)methyl)-5-methylphenyl)-4-methyl thiazole] | + (+ means >1 uM)
[2H]c1c(NC2CCC(F)(F)CC2)nc(-c2nc(C)cs2)nc1OC1CN(C(=O)OC)C1 [NSSy6045, methyl 3-((6-((4,4-difluorocyclohexyl)amino)-2-(4-methylthiazol-2-yl)pyrimidin-4-yl-5-d)oxy) azetidine-1-carboxylate] | + (+ means >1 uM)
COC(=O)N1CC(Oc2cc(NC3CCC(F)(F)CC3)nc(-c3nc(CO)cs3)n2)C1 [NSSy6049, methyl 3-((6-((4,4-difluorocyclohexyl)amino)-2-(4-(hydroxymethyl)thiazol-2-yl)pyrimidin-4-yl)oxy)azetidine-1-carboxylate] | + (+ means >1 uM)
COC(=O)N1CC(Oc2cc(NC3CCC(F)(F)CC3)nc(N3CCCC3)n2)C1 [NSSy6054] | + (+ means >1 uM)
CC(=O)N1CCN(c2cc(NC3CCC(F)(F)CC3)nc(-c3nc(C)cs3)n2)CC1 [NSSy6055] | +++ (+++ means <200 nM)
Cc1csc(-c2nccc(NC3CCC(F)(F)CC3)n2)n1 [NSSy6056, N-(4,4-difluorocyclohexyl)-2-(4-methylthiazol-2-yl)pyrimidin-4-amine] | ++ (++ means 200 nM-1000 nM)
COC(=O)N1CC(Oc2ccnc(-c3nc(C)cs3)n2)C1 [NSSy6057] | + (+ means >1 uM)
COC(=O)N1CC(Oc2cc(NC3CCC(F)(F)CC3)ncn2)C1 [NSSy6061, methyl 3-((6-((4,4-difluorocyclohexyl)amino)pyrimidin-4-yl)oxy) azetidine-1-carboxylate] | + (+ means >1 uM)
Cc1csc(-c2nc(NC3CCC(F)(F)CC3)cc(N3CCS(=O)(=O)CC3)n2)n1 [NSSy6062] | +++ (+++ means <200 nM)
Cc1cnc(-c2nc(NC3CCC(F)(F)CC3)cc(N3CCOCC3)n2)s1 [NSSy6067, N-(4,4-difluorocyclohexyl)-2-(5-methylthiazol-2-yl)-6-morpholinopyrimidin-4-amine] | + (+ means >1 uM)
COC(=O)N1CC(Oc2cc(NC3CCC(F)(F)CC3)[n+]([O-])c(-n3ccc(C)n3)n2)C1 [NSSy6072, 6-((4,4-difluorocyclohexyl)amino)-4-((1-(methoxycarbonyl)azetidin-3-yl)oxy)-2-(3-methyl-1H-pyrazol-1-yl)pyrimidine 1-oxide] | + (+ means >1 uM)
COC(=O)N1CC(Oc2cc(NC3CCC(C(F)(F)F)CC3)nc(-c3nc(C)cs3)n2)C1 (centres unmarked) [NSSy6078, methyl 3-((2-(4-methylthiazol-2-yl)-6-((4-(trifluoromethyl)cyclohexyl)amino)pyrimidin-4-yl)oxy) azetidine-1-carboxylate] | + (+ means >1 uM)
Cc1csc(-c2nc(O)cc(NC3CCC(F)(F)CC3)n2)n1 [NSSy6082, 6-((4,4-difluorocyclohexyl)amino)-2-(4-methylthiazol-2-yl)pyrimidin-4-ol] | + (+ means >1 uM)
COC(=O)N1CC(Oc2cc(NC3C4CC5CC(C4)CC3C5)nc(-n3ccc(C)n3)n2)C1 (centres unmarked) [NSSy6091] | ++ (++ means 200 nM-1000 nM)
Cc1csc(-c2nc(NC3CCC(F)(F)CC3)cc(N3CCN(C)C(=O)C3)n2)n1 [NSSy6093] | ++ (++ means 200 nM-1000 nM)
COC(=O)N1CC(Oc2cc(NC34CC5CC(CC(C5)C3)C4)nc(-n3ccc(C)n3)n2)C1 [NSSy6097] | +++ (+++ means <200 nM)
COC(=O)N1CC(Oc2cc(NC3CCCCC3)nc(-c3nc(C)cs3)n2)C1 [NSSy6099] | +++ (+++ means <200 nM)

SMILES | SC100 (μM)
COCC1CN(c2cc(NC3CCCCC3)nc(-c3nc(C)cs3)n2)CCO1 (centres unmarked) [NSSy6100] | ++ (++ means 200 nM-1000 nM)
COC(=O)N1CC(Oc2cc(N(C)C3CCC(F)(F)CC3)nc(-c3nc(C)cs3)n2)C1 [NSSy6105, methyl 3-((6-((4,4-difluorocyclohexyl) (methyl)amino)-2-(4-methylthiazol-2-yl)pyrimidin-4-yl)oxy) azetidine-1-carboxylate] | + (+ means >1 uM)
Cc1ccn(-c2nc(NC3CCC(F)(F)CC3)cc(N3CCS(=O)(=O)CC3)n2)n1 [NSSy6111] | ++ (++ means 200 nM-1000 nM)
COC[C@H]1CN(c2cc(NC3CCCCC3)nc(-c3nc(C)cs3)n2)CCO1 [NSSy6115] | ++ (++ means 200 nM-1000 nM)
Cc1csc(-c2nc(NC3CCC(F)(F)CC3)cc(N3CC4CC3CO4)n2)n1 (centres unmarked) [NSSy6116] | ++ (++ means 200 nM-1000 nM)
COC[C@@H]1CN(c2cc(NC3CCCCC3)nc(-c3nc(C)cs3)n2)CCO1 [NSSy6124] | ++ (++ means 200 nM-1000 nM)
Cc1nsc(-c2nc(NC3CCC(F)(F)CC3)cc(N3CCS(=O)(=O)CC3)n2)n1 [NSSy6125] | ++ (++ means 200 nM-1000 nM)
COC(=O)N1CC(Oc2cc(N3CC4(CCCCC4)C3)nc(-c3nc(C)cs3)n2)C1 [NSSy6126] | + (+ means >1 uM)
COC(=O)N1CC(Oc2cc(NC3C4CC3C4)nc(-n3ccc(C)n3)n2)C1 (centres unmarked) [NSSy6127] | + (+ means >1 uM)
Cc1csc(-c2nc(NC3CCC(F)(F)CC3)cc(N3CC4CCC(C3)O4)n2)n1 [NSSy6129] | ++ (++ means 200 nM-1000 nM)
Cc1csc(-c2nc(NC3CCCCC3)cc(N3CCS(=O)(=O)CC3)n2)n1 [NSSy6131] | +++ (+++ means <200 nM)
COC(=O)N1CC(Oc2cc(NC3CCC(F)(F)CC3)nc(-c3csc(C)n3)n2)C1 [NSSy6132] | + (+ means >1 uM)
COC(=O)N1CC(Oc2cc(NC3CCCCC3)nc(-c3csc(C)n3)n2)C1 [NSSy6133] | + (+ means >1 uM)
Cc1nc(-c2nc(NC3CCCCC3)cc(N3CCS(=O)(=O)CC3)n2)cs1 [NSSy6134] | + (+ means >1 uM)
Cc1nsc(-c2nc(NC3CCC(F)(F)CC3)cc(N3CC4(COC4)C3)n2)n1 [NSSy6145] | + (+ means >1 uM)
Cc1csc(-c2nc(NC3CCCCC3)cc(N3CCN(C4COC4)CC3)n2)n1 [NSSy6149] | ++ (++ means 200 nM-1000 nM)
FC1(F)CCC(Nc2cc(N3CCOCC3)nc(-c3nccs3)n2)CC1 [NSSy6152] | + (+ means >1 uM)
COC(=O)N1CC(Oc2cc(NC3CCC(F)(F)CC3)nc(-n3ccc(F)n3)n2)C1 [NSSy6162] | ++ (++ means 200 nM-1000 nM)
Cc1nc(-c2nc(NC3CCC(F)(F)CC3)cc(N3CCS(=O)(=O)CC3)n2)cs1 [NSSy6165] | + (+ means >1 uM)
COC(=O)N1CC(Oc2cc(NC3CCCCC3)nc(-c3nccs3)n2)C1 [NSSy6166, methyl 3-((6-(cyclohexylamino)-2-(thiazol-2-yl)pyrimidin-4-yl)oxy) azetidine-1-carboxylate] | + (+ means >1 uM)
COC(=O)N1CC(Oc2cc(NC3CCC(F)(F)CC3)nc(-c3nccs3)n2)C1 [NSSy6167] | + (+ means >1 uM)
Cc1csc(-c2nc(NC3CCC(F)(F)CC3)cc(N3C[C@@H]4C[C@H]3CO4)n2)n1 [NSSy6171] | ++ (++ means 200 nM-1000 nM)
Cc1nsc(-c2nc(NC3CCC(F)(F)CC3)cc(N3CCN4C(=O)OCC4C3)n2)n1 (centres unmarked) [NSSy6178] | ++ (++ means 200 nM-1000 nM)
Cc1nsc(-c2nc(NC3CCC(F)(F)CC3)cc(N3CCN(C4COC4)CC3)n2)n1 [NSSy6201] | + (+ means >1 uM)
Cc1nsc(-c2nc(NC3CCCCC3)cc(N3CCS(=O)(=O)CC3)n2)n1 [NSSy6202, 4-(6-(cyclohexylamino)-2-(3-methyl-1,2,4-thiadiazol-5-yl)pyrimidin-4-yl)thiomorpholine 1,1-dioxide] | ++ (++ means 200 nM-1000 nM)
Cc1nsc(-c2nc(NC3CCC(F)(F)CC3)cc(N3CCN4C(=O)OC[C@@H]4C3)n2)n1 [NSSy6251] | ++ (++ means 200 nM-1000 nM)
